Assay results published in patent US10640545B2 (THE GOVERNORS OF THE UNIVERSITY OF ALBERTA, priority 2017, dated 2020).
*1 amine or outer side, *2 acyl side, *3 side chain or, on linkers, in order; H or OH if unused. Where a SMILES comes first, the peptide text is derived from it. [ ]: non-standard residue; d: D form. Phe(4-Br) = N[C@@H](Cc1ccc(Br)cc1)C(=O)O; X1 = N=C(N)NCCCN(N[*:1])C(=O)[*:2]; azaLeu = CC(C)CN(N[*:1])C(=O)[*:2]; Nle = CCCC[C@H](N)C(=O)O; Aib = CC(C)(N)C(=O)O

What was measured:
NEP = NEP (Homo sapiens, UniProt P08473); assay: Neprilysin inhibition assay (degradation of 1 after preincubation with peptide); format: biochemical; set-up: purchased Sino Biological; conditions: preincubation of NEP with equimolar peptide
Sequence of NEP (P08473 whole entry): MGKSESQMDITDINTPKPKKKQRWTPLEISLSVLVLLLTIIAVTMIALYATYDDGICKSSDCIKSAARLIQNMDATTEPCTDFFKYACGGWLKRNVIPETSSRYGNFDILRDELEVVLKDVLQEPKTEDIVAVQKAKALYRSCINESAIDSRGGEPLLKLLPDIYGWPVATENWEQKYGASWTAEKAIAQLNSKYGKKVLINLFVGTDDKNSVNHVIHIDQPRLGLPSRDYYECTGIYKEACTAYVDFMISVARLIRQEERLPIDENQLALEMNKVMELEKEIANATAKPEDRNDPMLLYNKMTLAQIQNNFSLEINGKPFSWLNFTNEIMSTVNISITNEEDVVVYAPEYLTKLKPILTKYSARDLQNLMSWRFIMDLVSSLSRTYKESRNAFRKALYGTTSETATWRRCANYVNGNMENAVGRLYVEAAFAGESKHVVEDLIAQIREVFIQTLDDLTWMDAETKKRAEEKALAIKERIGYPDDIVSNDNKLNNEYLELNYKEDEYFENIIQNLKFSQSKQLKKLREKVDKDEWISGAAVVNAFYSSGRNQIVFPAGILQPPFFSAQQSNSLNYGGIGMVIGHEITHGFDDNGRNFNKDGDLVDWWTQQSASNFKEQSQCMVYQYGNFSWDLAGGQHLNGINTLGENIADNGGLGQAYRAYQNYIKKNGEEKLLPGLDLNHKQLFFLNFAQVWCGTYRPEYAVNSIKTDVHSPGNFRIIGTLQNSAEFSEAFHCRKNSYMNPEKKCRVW
Protocol: This experiment investigates the ability of synthetic peptides 8-19 to inhibit the inherent proteolytic activity of NEP.
Assays were performed in duplicate (n=2) for each time point.

in vitro = conditions: human, plasma
[1] = target: T1, wild-type rat apelin receptor (Rattus norvegicus, UniProt Q9JHG3); assay: Radioligand binding, displacement of [125I]-pyr-1-apelin-13 on CHO cell membranes; conditions: for receptor binding affinity (in words): rat apelin receptor
T1 construct: expressed in transfected cells
T1 sequence (Q9JHG3 1-377): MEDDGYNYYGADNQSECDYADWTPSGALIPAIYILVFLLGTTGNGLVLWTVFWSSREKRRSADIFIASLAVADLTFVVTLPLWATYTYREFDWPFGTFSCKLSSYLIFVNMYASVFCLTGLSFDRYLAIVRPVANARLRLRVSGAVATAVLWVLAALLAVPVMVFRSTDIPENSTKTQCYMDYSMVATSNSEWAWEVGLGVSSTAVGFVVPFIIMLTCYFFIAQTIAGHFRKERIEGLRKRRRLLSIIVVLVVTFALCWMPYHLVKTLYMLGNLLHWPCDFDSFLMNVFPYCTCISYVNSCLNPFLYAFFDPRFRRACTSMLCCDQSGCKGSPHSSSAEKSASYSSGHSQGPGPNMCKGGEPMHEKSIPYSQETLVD
Protocol: This experiment evaluated the ability of peptides of the present embodiments to bind to the wild-type rat apelin receptor, in order to examine the impact of synthetic modification within the critical RPRL motif of the apelin peptides.
Membrane preparations from CHO cells stably expressing the wild-type rat apelin receptor-EGFP were prepared as previously described (Gerbier et al., New Structural Insights Into The Apelin Receptor: Identification Of Key Residues For Apelin binding; FASEB J. 2015, 29, 314-322; Iturrioz et. al., Development Of Original Metabolically-Stable Apelin-17 Peptides With Diuretic And Cardiovascular Effects; FASEB J. 2017, 31, 687-700.) Crude membrane preparations (1 μg total mass of membranes/assay) were incubated for 3 h at 20° C. with 0.2 nM [^125I]-pyr-1-apelin-13 (monoiodinated on Lys^8 with Bolton-Hunter reagent, Perkin Elmer, Wellesley, Mass., USA) in binding buffer (50 mM HEPES, 5 mM MgCl2 1149 pH 7.5, BSA 1%) alone or in presence of the different compounds at various concentrations. The reaction was stopped by adding 4 mL of cold binding buffer, filtered on Whatman GF/C filters and washed with 5 mL of cold binding buffer. Radioactivity was then counted using a Wizard 1470 Wallac gamma counter (Perkin Elmer, Turku, Finland). Binding experiment data were analyzed with Graph Pad Prism.

anesthetized mice = assay: Blood pressure assay in anesthetized mice; format: in vivo; conditions: 1.4 μM/kg body weight injected, SBP, DBP, MABP
Protocol: Synthetic peptides 8-19 were tested for blood pressure lowering abilities in anesthetized mice. Apelin peptides were injected through […], monitoring blood pressure (BP) and heart rate (HR) over 60 minutes.
Mice were anaesthetized with 1.5% isoflurane/oxygen, and body temperature was monitored and maintained at 36° C. by a heating pad. The aorta was cannulated via the right carotid artery using a PV loop catheter (Model 1.2F from Scisense, Transonic) in order to continuously record arterial blood pressure and heart rate (LabScribe 2.0, Scisense). […] Results are reported as systolic blood pressure (SBP), diastolic blood pressure (DBP), mean arterial blood pressure (MABP) and heart rate (HR).
Apelin peptides 11, 56-59 as well as the KLKB1-cleavage fragments 54 and 55 were tested for blood pressure lowering abilities in anesthetized mice.
Mice were anesthetized with 1.5% isoflurane/oxygen, and body temperature was monitored and maintained at 36° C. by a heating pad. The aorta was cannulated via the right carotid artery using a PV loop catheter (model 1.2F from Scisense, Transonic) in order to continuously record arterial blood pressure and heart rate (LabScribe 2.0, Scisense). Compounds 11, and 54-59 or 55-59 (1.4 μM/kg body weight) or the same volume of saline was injected via the right jugular vein. Results are reported as systolic blood pressure (SBP), diastolic blood pressure (DBP), mean arterial blood pressure (MABP), and heart rate (HR) shown in FIGS. 15A-D.
Apelin peptides were delivered systemically via the right internal jugular vein while blood pressure (BP) and heart rate (HR) were continuously monitored in the aorta cannulated via the right carotid artery. All N-terminally extended apelin peptides, except 58, show pronounced and time-stable blood pressure lowering effects (FIGS. 15a-d). […] This correlates with the results obtained from the Ca^2+ mobilization assay.

isolated rat hearts = assay: Langendorff isolated heart, ischemia-reperfusion injury; conditions: ex vivo heart, 30 min ischemia; for ability to rescue the heart from ischemic reperfusion injury: peptide at start of reperfusion for 10 min at 1 pM; for max/min dP/dt, LVDP and RPP compared to native isoform 2: reperfusion
Protocol: The ex vivo heart was assessed for a variety of parameters (heart rate (HR); left ventricle developed pressure (LVDP); maximum derivative of change in systolic pressure over time (max dP/dt); minimum derivative of change in diastolic pressure over time (min dP/dt); and rate-pressure product (RPP)) indicative of general heart function and performance (FIG. 11).
Langendorff heart perfusion and ischemia-reperfusion injury were prepared and cardiac function was measured. Mice were heparinized and anaesthetized with 1.5-2% isoflurane inhalation. The heart was excised, mounted on a Langendorff system, and perfused at a consistent pressure of 80 mmHg with modified Krebs-Henseleit solution (116 mM NaCl, 3.2 mM KCl, 2.0 mM CaCl2), 1.2 mM MgSO4, 25 mM NaHCO3, 1.2 mM KH2PO4, 11 mM glucose, 0.5 mM EDTA and 2 mM pyruvate), which was kept at 37° C. and continuously oxygenated with 95% O2 and 5% CO2 which maintained the perfusion buffer at pH 7.4. After stabilization and 10 min baseline recording, global ischemia was induced for 30 min followed by 40 min of reperfusion. Apelin 17 (2) or apelin peptides (11, 17, 18, or 19) were given at the start of reperfusion for 10 min at a concentration of 1 pM. Left ventricular functions were obtained continuously by PowerLab system (ADInstruments, Australia). Data was reported as mean value of every 5 min. Left ventricular functions were reported as: Left Ventricular Developed Pressure (LVDP); Heart rate (HR); maximum derivative of change in systolic pressure over time (max dP/dt); minimum derivative of change in diastolic pressure over time (min dP/dt); and Rate Pressure Product (RPP).

| remaining at 0.5 h, 80 µM (in vitro) [%] | remaining at 1 h, 80 µM (in vitro) [%] | Ki ([1]; displacement of [125I]-pyr-1-apelin-13 (0.2 nM), CHO membranes, rat apelin receptor-EGFP, means ± SE, read-out: Affinity Ki) [nM] | receptor binding affinity (in words) [1] | SMILES | inhibition of the proteolytic activity of NEP (NEP) | blood pressure lowering (hypotensive) effect (anesthetized mice) | ability to rescue the heart from ischemic reperfusion injury (isolated rat hearts) | max/min dP/dt, LVDP and RPP compared to native isoform 2 (isolated rat hearts) |
| --- | --- | --- | --- | --- | --- | --- | --- | --- |
| 96 ± 6 | 94 ± 3 | 0.14 ± 0.009 | sub-nanomolar receptor affinities | CCCC[C@H](NC(=O)[C@@H]1CCCN1C(=O)CNC(=O)[C@H](CCCCN)NC(=O)[C@H](Cc1c[nH]cn1)NC(=O)[C@H](CO)NC(=O)[C@H](CC(C)C)NC(=O)N(CCCNC(=N)N)NC(=O)[C@@H]1CCCN1C(=O)[C@H](CCCNC(=N)N)NC(=O)[C@H](CCC(N)=O)NC(=O)[C@H](CCCNC(=N)N)NC(=O)[C@H](CCCNC(=N)N)NC(=O)[C@H](Cc1ccccc1)NC(=O)[C@@H](N)CCCCN)C(=O)NC(C)(C)C(=O)N[C@@H](Cc1ccc(Br)cc1)C(=O)O [Peptide 17, Lys-Phe-Arg-Arg-Gln-Arg-Pro-azaArg-Leu-Ser-His-Lys-Gly-Pro-Nle-Aib-paraBrPhe] (H-KFRRQRP[X1]LSHKGP[Nle][Aib][Phe(4-Br)]-OH; N-terminus and C-terminus assumed) | no ability to inhibit the inherent activity of NEP | potent hypotensive activity that rivaled or bested that of native 2 or A2 variant 5 | equivalent ability to rescue the heart from ischemic reperfusion injury compared to native isoform 2 | behaving very analogously to 2 |
| 82 ± 1 | 68 ± 4 | – | sub-nanomolar receptor affinities | CCCC[C@H](NC(=O)[C@@H]1CCCN1C(=O)CNC(=O)[C@H](CCCCN)NC(=O)[C@H](Cc1c[nH]cn1)NC(=O)[C@H](CO)NC(=O)N(CC(C)C)NC(=O)[C@H](CCCNC(=N)N)NC(=O)[C@@H]1CCCN1C(=O)[C@H](CCCNC(=N)N)NC(=O)[C@H](CCC(N)=O)NC(=O)[C@H](CCCNC(=N)N)NC(=O)[C@H](CCCNC(=N)N)NC(=O)[C@H](Cc1ccccc1)NC(=O)[C@@H](N)CCCCN)C(=O)NC(C)(C)C(=O)N[C@@H](Cc1ccc(Br)cc1)C(=O)O [Peptide 19] (H-KFRRQRPR[azaLeu]SHKGP[Nle][Aib][Phe(4-Br)]-OH; N-terminus and C-terminus assumed) | no ability to inhibit the inherent activity of NEP | potent hypotensive activity that rivaled or bested that of native 2 or A2 variant 5 | equivalent ability to rescue the heart from ischemic reperfusion injury compared to native isoform 2 | slight improvement over the native isoform |
